Results reported in US11014925B2, “Co-crystals of 1-(4-fluoro-phenyl)-4-((6bR,1OaS)-3-methyl-2,3,6b,9,10,10a-hexahydro-1H,7H- pyrido[3′,4′:4,51_pyrrolo [1,2,3-delqcuinoxalin-8-yl)-butan-1-one with nicotinamide or isonicotinamide” (INTRA-CELLULAR THERAPIES, INC., priority 2016, dated 2021).
Where two headings read alike, the source gives them in different places.

Tests used:
[1] = Dynamic Vapour Sorption (DVS) hygroscopicity; format: physicochemical
Procedure: Dynamic Vapour Sorption (DVS): The Dynamic Vapour Sorption studies are performed using a Surface Measurement Systems Ltd. DVS-1 No Video, equipment #2126. The sample is loaded into a balance pan, typically 20-30 mg, and equilibrated at 0% RH. After the material was dried, the RH is increased with 10% per step for 1 hour per increment, ending at 95% RH. After completion of the sorption cycle, the sample was dried using the same method. The software used for data collection is DVSWin v3.01 No Video. Data analysis is performed using DVS Standard Analysis Suite v6.3.0 (Standard).

[2] = target: H1 histaminergic receptors (Homo sapiens, UniProt P35367); details: cited from earlier work
Sequence of H1 histaminergic receptors (P35367 whole entry): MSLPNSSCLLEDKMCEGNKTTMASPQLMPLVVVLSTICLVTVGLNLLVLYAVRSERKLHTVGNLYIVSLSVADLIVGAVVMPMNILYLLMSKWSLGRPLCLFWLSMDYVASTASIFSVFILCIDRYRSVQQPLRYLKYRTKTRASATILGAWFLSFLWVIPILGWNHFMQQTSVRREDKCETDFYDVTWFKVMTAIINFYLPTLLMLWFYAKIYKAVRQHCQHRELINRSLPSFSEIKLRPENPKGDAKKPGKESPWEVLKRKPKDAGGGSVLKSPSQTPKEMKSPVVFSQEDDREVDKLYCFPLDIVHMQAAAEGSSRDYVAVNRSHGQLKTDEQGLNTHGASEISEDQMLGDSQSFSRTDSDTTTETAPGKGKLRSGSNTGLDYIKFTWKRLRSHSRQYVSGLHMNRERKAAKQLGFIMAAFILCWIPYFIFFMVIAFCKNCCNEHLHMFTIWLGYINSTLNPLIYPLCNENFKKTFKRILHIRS

5-HT2C receptors = target: T1, 5-HT2C receptors (Homo sapiens, UniProt P28335); details: cited from earlier work
T1 sequence (P28335 33-458): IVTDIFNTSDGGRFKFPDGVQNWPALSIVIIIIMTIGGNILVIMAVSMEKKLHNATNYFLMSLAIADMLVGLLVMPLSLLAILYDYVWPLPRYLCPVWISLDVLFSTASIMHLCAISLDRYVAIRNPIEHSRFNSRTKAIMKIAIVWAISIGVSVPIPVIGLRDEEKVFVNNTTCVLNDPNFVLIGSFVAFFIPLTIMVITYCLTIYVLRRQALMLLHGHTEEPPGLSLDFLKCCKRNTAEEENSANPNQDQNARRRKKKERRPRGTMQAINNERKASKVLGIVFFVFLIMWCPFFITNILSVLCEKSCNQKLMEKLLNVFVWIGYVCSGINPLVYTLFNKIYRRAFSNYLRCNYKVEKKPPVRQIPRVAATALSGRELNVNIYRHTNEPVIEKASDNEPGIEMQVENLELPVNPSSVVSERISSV

[3] = free base form; in water and in many organic solvents; cited from earlier work
[4] = solubility, general statements; format: physicochemical; details: general statement, solvent not given
Procedure: Solubility of free base in various solvents is evaluated, and based on the results of the solubility range, suitable solvents are selected for the co-crystal screen. Co-crystal formation is based on hydrogen bonding and stacking of the molecules, meaning the co-former selection is based on active groups. Grinding is a method to form co-crystals, however the free base itself is an oil/sticky solid and therefore not suitable for this method. The free base and counter ion are added to a solution in a certain ratio to give the chance to form a co-crystal, similar to salt formation. We found the best method is to add a saturated solution of the co-former to that of the free base to find an optimal ratio for co-crystal formation.

muscarinic receptors = details: cited from earlier work
[5] = hydrochloride salt of U.S. Pat. No. 7,183,282; cited from earlier work
[6] = hydrochloride salt of U.S. Pat. No. 7,183,282; cited from earlier work; remark: listed apart in the source

In the case of `CN1CCN2c3c(cccc31)C1CN(CCCC(=O)c3ccc(F)cc3)CCC12.NC(=O)c1ccncc1` (stereo not shown), the “Hygroscopicity (%)” value [1] is reported as 0.2%, the “hygroscopicity (in words)” value [1] is reported as “not hygroscopic” and the mass uptake ([1]; at 95 RH %) is reported as 0.2%.

For `CN1CCN2c3c(cccc31)[C@@H]1CN(CCCC(=O)c3ccc(F)cc3)CC[C@@H]12` [ITI-007, 1-(4-fluoro-phenyl)-4-((6bR,10aS)-3-methyl-2,3,6b,9,10,10a-hexahydro-1H,7H-pyrido[3′,4′:4,5]pyrrolo[1,2,3-de]quinoxalin-8-yl)-butan-1-one], the binding [2] is given as “negligible binding”, the binding (5-HT2C receptors) is given as “negligible binding” and the solubility [3] is given as “poor solubility”. For the same compound, the solubility [4] was “poorly soluble” and the binding (muscarinic receptors) was “negligible binding”.

For `CN1CCN2c3c(cccc31)C1CN(CCCC(=O)c3ccc(F)cc3)CCC12.Cl` (stereo not shown) [hydrochloride salt form of ITI-007], the hygroscopicity [5] is listed as “hygroscopic” and the stability [6] is listed as “poor stability”.
